Experimental data published in US11732007B2, “Therapeutic compounds and methods” (The Regents of the University of California, priority 2020, dated 2023).

Legend:
[1] = target: T1, MMP-14 (Homo sapiens, UniProt P50281); assay: SensoLyte 520 fluorimetric selectivity assay, MMP-14; assay type: biochemical; details: agents tested at 25 nM or at 4 nM
T1 construct: purchased AnaSpec AS-72068
Procedure: (§1) FIG. 2. […] For each indicated enzyme, agents were tested at 25 nM or at 4 nM and percent inhibition was measured using the catalytic domains of the respective enzyme and the SensoLyte® 520 Fluorimetric Assay Kit (Anaspec).
(§2) Enzymatic assays to profile the inhibitory effects of all the compounds on hMMP-12, and against a panel of 5 closely related MMPs (MMP-1, MMP-3, MMP-9, MMP-13, and MMP-14) were performed using the SensoLyte® 520 Fluorimetric Assay Kit (AnaSpec) for each MMPs. Assay kit for MMP-12 Cat. #AS-71157, MMP-1 Cat. #AS-71150, MMP-3 Cat. #AS-71152, MMP-9 Cat. #AS-71155, MMP-13 Cat. #AS-71156, and MMP-14 Cat. #AS-72025. The assay was performed according to their protocols. Briefly, 10 ng of each MMPs were incubated on a black flat-bottom 96-well plate (Cat. #9502867) at RT for 15 minutes in absence or in presence of different concentration of each compound in a total volume of 50 μL. After 15 minutes, 50 μL of each substrate solution were added. The reagents were mixed together by shaking the plate gently for 30 sec. Immediately after the fluorescence was measured using the VICTOR X5 microplate reader (PerkinElmer) every 3 min for 60 min. All the measurement were performed in duplicates. The IC50 values were calculated from dose-response curves using GraphPad Prism 7.

[2] = target: T2, MMP-9 (Homo sapiens, UniProt P14780); assay: SensoLyte 520 fluorimetric selectivity assay, MMP-9; assay type: biochemical; details: agents tested at 25 nM or at 4 nM
T2 construct: purchased AnaSpec AS-55576-1
T2 sequence (P14780 107-444 limits assumed): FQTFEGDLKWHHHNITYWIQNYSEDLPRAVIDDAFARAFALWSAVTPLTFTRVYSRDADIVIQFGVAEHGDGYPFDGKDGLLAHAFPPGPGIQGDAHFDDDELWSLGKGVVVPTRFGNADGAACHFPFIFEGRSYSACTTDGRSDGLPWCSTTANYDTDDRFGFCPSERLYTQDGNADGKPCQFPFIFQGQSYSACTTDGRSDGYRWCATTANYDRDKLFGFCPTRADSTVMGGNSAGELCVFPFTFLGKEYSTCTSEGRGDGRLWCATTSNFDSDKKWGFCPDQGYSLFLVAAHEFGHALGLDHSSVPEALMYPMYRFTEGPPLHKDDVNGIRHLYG
Procedure: as §1, §2

[3] = Solubility in dosing formulation; assay type: physicochemical; details: 10% DMSO, 40% PEG400, 10% (2-hydroxypropyl)-Beta-cyclodextrin in PBS
Procedure: (§3) Compound 25 was administered i.p. (30 mg/kg) to 5 Balb-C mice. Retrorbital bleeding was used to collect blood samples at times 30 min, 1 h, 2 h, 4 h, 8 h, and 24 h and the samples analyzed for compound 25 plasma concentration via extraction followed by LC/MS and compared to a standard calibration curve prepared with purified agent. Compound 25 was soluble in 10% DMSO, 40% PEG400, and 10% (2-hydroxypropyl)-Beta-cyclodextrin in PBS. Mice weight varied between 22 g and 26 g, each receiving approximately 200 μL (weight adjusted to administer 30 mg/Kg of compound 25) of formulated agent. The experiments were conducted at the University of California San Diego in vivo pharmacology core facility, according to a UCSD Institutional Animal Care and Use Committee (IACUC) approved protocol.

[4] = target: T3, MMP-13 (Homo sapiens, UniProt P45452); assay: SensoLyte 520 fluorimetric selectivity assay, MMP-13; assay type: biochemical; details: agents tested at 25 nM or at 4 nM
T3 construct: purchased AnaSpec AS-72257
Procedure: as §1, §2

[5] = target: T4, MMP-1 (Homo sapiens, UniProt P03956); assay: SensoLyte 520 fluorimetric selectivity assay, MMP-1; assay type: biochemical; details: agents tested at 25 nM or at 4 nM
T4 construct: purchased AnaSpec AS-55575-1
T4 sequence (P03956 100-269 limits assumed): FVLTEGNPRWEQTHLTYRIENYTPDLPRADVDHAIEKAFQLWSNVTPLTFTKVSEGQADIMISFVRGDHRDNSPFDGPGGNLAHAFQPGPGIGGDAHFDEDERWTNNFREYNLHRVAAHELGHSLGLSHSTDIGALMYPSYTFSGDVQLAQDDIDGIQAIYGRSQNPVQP
Procedure: as §1, §2

[6] = Preliminary pharmacokinetic study in mice; assay type: in vivo, Balb-C mice
Procedure: as §3

[7] = target: T5, hMMP-12 (Homo sapiens, UniProt P39900); assay: SensoLyte 520 MMP-12 fluorimetric enzyme inhibition assay; assay type: biochemical; details: for IC50: catalytic domain, tested side by side
T5 construct: The catalytic domain (Gly106-Gly263) of human macrophage metalloelastase (hMMP-12); made in house; host or cells: E. coli BL21 Codon Plus (pET21 vector, NdeI/BamHI)
T5 sequence (P39900 106-263): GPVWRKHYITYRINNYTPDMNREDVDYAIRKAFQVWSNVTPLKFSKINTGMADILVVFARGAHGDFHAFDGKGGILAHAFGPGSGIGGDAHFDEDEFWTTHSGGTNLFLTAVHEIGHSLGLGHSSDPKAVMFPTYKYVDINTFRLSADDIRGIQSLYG

[8] = target: T6, MMP-3 (Homo sapiens, UniProt P08254); assay: SensoLyte 520 fluorimetric selectivity assay, MMP-3; assay type: biochemical; details: agents tested at 25 nM or at 4 nM
T6 construct: purchased AnaSpec 72006
T6 sequence (P08254 100-272 limits assumed): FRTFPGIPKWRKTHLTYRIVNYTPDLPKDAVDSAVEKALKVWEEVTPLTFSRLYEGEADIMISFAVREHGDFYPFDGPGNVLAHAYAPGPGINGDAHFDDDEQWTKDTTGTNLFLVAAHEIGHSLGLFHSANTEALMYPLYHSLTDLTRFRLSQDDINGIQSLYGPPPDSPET
Procedure: as §1, §2

[9] = tested on: murine model of elastase-induced emphysema; assay: Murine model of elastase-induced emphysema, mean linear intercept analysis; assay type: in vivo, C57BL/6 mice; details: i.p. once daily for 7 days from day 2 after PPE, day 21
Procedure: C57BL/6 mice were purchased from Jackson Laboratories (Bar Harbor, Me.) and maintained in a pathogen-free vivarium at room temperature with 12-hour light/dark cycles. All mice were 6-8 weeks and both male and female mice were used for the experiment. All animal-use and euthanasia protocols were approved by the UC Riverside Institutional Animal Care and Use Committee (IACUC).
C57BL/6 mice were given a single intranasal instillation with 50 μl of saline or 0.9 U porcine pancreas elastase (Sigma-Aldrich, St. Louis, Mo.) diluted in phosphate buffered saline (IX PBS). Two days following the instillation, mice were treated with 200 μl of vehicle control, MMP-408, compound 25, or compound 26 via intraperitoneal injection. Mice were continually given treatment once a day for 7 consecutive days. Twenty-one days following the initial intranasal instillation, mice were sacrificed. Bronchoalveolar lavage fluid (BALF) was collected by making an incision in the trachea and inserting a cannula with syringe (BD Biosciences, CA), then washing with 1 mL of cold PBS three times. BALF was centrifuged at 1200 RPM for 5 minutes, then cell pellets were combined and resuspended in 200 μl of PBS to be used in cell counts and cell differential analysis. The lungs were isolated, slowly filled with 1 mL of 10% formalin then hung in formalin overnight for fixation. The following day, lungs were moved into 70% ethanol and stored at 4° C. until paraffin-embedding.
Mouse lungs were fixed in formalin and paraffin-embedded, then sectioned and stained in hematoxylin and eosin by the University of California Irvine Department of Pathology Experimental Tissue Resource Core Facility. The lungs were imaged on a Revolve light microscope (La Jolla, Calif.) at 10× magnification. MLI measurements were calculated using an established indirect method on ImageJ software. Briefly, alveolar walls/intersections were counted along a line of known length, then length was divided by the number of intersections to calculate MLI. This process was repeated for a total of five MLI measurements per image, with there being four images per mouse lung. The average MLI measurement for each lung was calculated and statistically analyzed using GraphPad Prism software (San Diego, Calif.).

[10] = 30 mg/kg intraperitoneally, mice

| inhibition of MMP-14 [1] | inhibition of MMP-9 [2] | solubility in formulation [3] | inhibition of MMP-13 [4] | inhibition of MMP-1 [5] | peak plasma drug concentration [6, 10] [ng/mL] | peak plasma drug concentration (molar) [6, 10] [nM] | peak plasma concentration relative to in vitro IC90 ([6]; mouse, in vivo) [times] | mode of MMP-12 inhibition [7] | IC50 [7] [nM] | inhibition of MMP-3 [8] | Compound | MLI measurements compared to saline (no PPE)-treated mice [9] | emphysema-like pathology compared to PPE+vehicle-treated mice [9] |
| --- | --- | --- | --- | --- | --- | --- | --- | --- | --- | --- | --- | --- | --- |
| did not display significant inhibition | did not display significant inhibition | soluble | did not display significant inhibition | did not display significant inhibition | ~400 | ~580 | > 20 | competitive inhibitors | ~4 | appreciable inhibition | COc1ccc(CC[C@@H](NC(=O)[C@H](CCCc2ccccc2)NC(=O)CN2CCOCC2)C(=O)N[C@H](Cc2ccc(C)cc2)C(=O)NO)cc1 [Compound 25] | no significant differences | significant decrease |
| did not display significant inhibition | did not display significant inhibition |  | did not display significant inhibition | did not display significant inhibition |  |  |  | competitive inhibitors | ~4 | appreciable inhibition | COc1ccc(CCC[C@H](NC(=O)CN2CCOCC2)C(=O)N[C@H](CCc2ccc(OC)cc2)C(=O)N[C@H](Cc2ccc(C)cc2)C(=O)NO)cc1 [Compound 26] | no significant differences | significant decrease |
|  |  |  |  |  |  |  |  |  |  |  | COC(=O)Nc1ccc2oc3cc(S(=O)(=O)N[C@H](C(=O)O)C(C)C)ccc3c2c1 [MMP408, reference compound] | no significant differences | significant decrease |
|  |  |  |  |  |  |  |  |  | ~2.5 | appreciable inhibition | CNC(=O)[C@H](Cc1c[nH]c2ccccc12)NC(=O)[C@@H](CC(=O)NO)CC(C)C [GM6001, reference compound] |  |  |
